Assays:
Homo sapiens [1] = organism: Homo sapiens; assay: Oral clearance in HIV1 infected pregnant woman during antepartum period at 800 mg three times/day; type: ADME, organism-based; conditions: in vivo
[2] = AUC (0-8 hrs) in HIV1 infected pregnant woman during postpartum period at 800 mg three times/day; type: ADME, organism-based; design: dose 800 mg, time < 8 hr; conditions: female, human, plasma
[3] = Tmax in HIV1 infected pregnant woman during antepartum period at 800 mg three times/day; type: ADME, organism-based; conditions: female, human, in vivo
[4] = Oral clearance in HIV1 infected pregnant woman during postpartum period at 800 mg three times/day; type: ADME, organism-based; conditions: female, human, in vivo
[5] = Tmax in HIV1 infected pregnant woman during postpartum period at 800 mg three times/day; type: ADME, organism-based; conditions: female, human, in vivo
Homo sapiens [6] = organism: Homo sapiens; assay: AUC (0-8 hrs) in HIV1 infected pregnant woman during antepartum period at 800 mg three times/day; type: ADME, organism-based, Plasma; design: dose 800 mg, time < 8 hr; conditions: in vivo
[7] = Cmax in HIV1 infected pregnant woman during antepartum period at 800 mg three times/day; type: ADME, organism-based; design: dose 800 mg; conditions: female, human, in vivo
[8] = Cmax in HIV1 infected pregnant woman during postpartum period at 800 mg three times/day; type: ADME, organism-based; design: dose 800 mg; conditions: female, human, in vivo

- CL/F (Homo sapiens [1]): 3558 mL/min
- AUC at 8 h [2]: 23800 ng·h/mL
- Tmax [3]: 1.85 h
- CL/F [4]: 697 mL/min
- Tmax [5]: 1.88 h
- AUC (Homo sapiens [6]): 459 µg·min/mL
- Cmax [7]: 4370 ng/mL
- Cmax [8]: 9270 ng/mL
SMILES: CC(C)(C)NC(=O)[C@@H]1CN(Cc2cccnc2)CCN1C[C@@H](O)C[C@@H](Cc1ccccc1)C(=O)N[C@H]1c2ccccc2C[C@H]1O.O [INDINAVIR]
